Source: patent publication US9447087B2, “Galactokinase inhibitors for the treatment and prevention of associated diseases and disorders” (UNIVERSITY OF UTAH RESEARCH FOUNDATION, priority 2011, dated 2016)

tested on: HEK293 cells; experiment: cytotoxicity, Promega CellTiter Glo on HEK293 cells (PubChem ID 2547); type: cell-based; settings: analyzed after 48 hours
Procedure: The selectivity for these analogs against CDP-ME kinase, another member of the GHMP kinase family, was performed using a bioluminescent Kinase Glo™ assay that detects ATP depletion after kinase reaction (PubChem ID 2506). […] All analogs were also tested for cytotoxicity using Promega CellTiter Glo on HEK293 cells that were treated with compounds and analyzed after 48 hours.

| Compound | cytotoxic effect on HEK293 cells |
| --- | --- |
| O=C1CCCC2=C1C1(CCCC1)N=C(Nc1nc3cc(Cl)ccc3o1)N2 [Compound 20] | no cytotoxic effect |
| Cc1ccc2nc(NC3=NC4(CCCC4)C4=C(CCCC4=O)N3)oc2c1 [Compound 28] | no cytotoxic effect |
| O=C1CC(c2ccccc2)CC2=C1C1(CCCCC1)N=C(Nc1nc3ccccc3o1)N2 (stereo not drawn) [Compound 6] | no cytotoxic effect |
| O=C1CCCC2=C1C1(CCCC1)N=C(Nc1nc3ccccc3o1)N2 [Compound 4] | no cytotoxic effect |
| O=C1CCC2=C1C1(CCCC1)N=C(Nc1nc3ccccc3o1)N2 [Compound 10] | no cytotoxic effect |

target: GALK (Homo sapiens (Human), UniProt P51570); experiment: primary qHTS assay for inhibitors of GALK (KinaseGlo ATP depletion); type: biochemical; design: GALK Assay Efficacy: unit not given here; settings: 5 nM GALK, 35 μM ATP, 1 hr incubation
Sequence (P51570 whole entry): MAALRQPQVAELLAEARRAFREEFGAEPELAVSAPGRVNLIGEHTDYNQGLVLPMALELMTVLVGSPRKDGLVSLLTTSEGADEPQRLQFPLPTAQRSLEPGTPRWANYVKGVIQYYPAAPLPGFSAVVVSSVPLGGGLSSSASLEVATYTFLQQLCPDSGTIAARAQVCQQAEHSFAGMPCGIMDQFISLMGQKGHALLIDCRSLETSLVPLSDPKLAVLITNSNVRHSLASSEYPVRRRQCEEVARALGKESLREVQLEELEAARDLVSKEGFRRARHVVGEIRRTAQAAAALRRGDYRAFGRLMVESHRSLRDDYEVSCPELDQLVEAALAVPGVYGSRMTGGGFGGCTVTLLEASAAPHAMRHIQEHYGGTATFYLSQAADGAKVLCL
Procedure: Assay details and protocol: The primary assay monitored ATP depletion using Promega's KinaseGlo™ technology, where ATP levels are measured through luminescence generated from firefly luciferase, a bioluminescent ATP-dependent enzymes. […] This was used as the positive control for the assay. […]

| Compound | IC50 [µM] | GALK Assay Efficacy |
| --- | --- | --- |
| CC1=C(C(=O)NC2CCCCC2)C(c2ccccc2Br)N=C(Nc2nc3ccccc3o2)N1 (stereo not drawn) [Compound 89] | 9.19 | – |
| O=C1CCCC2=C1C(c1ccncc1)N=C(Nc1nc3ccccc3o1)N2 (stereo not drawn) [Compound 50] | 42.1 | – |
| O=C1CCCC2=C1C(c1cccc(Cl)c1)N=C(Nc1nc3ccccc3o1)N2 (stereo not drawn) [Compound 37] | 61.1 | – |
| O=C1CCCC2=C1C(c1cccnc1Br)N=C(Nc1nc3ccccc3o1)N2 (stereo not drawn) [Compound 63] | 14.6 | – |
| COc1ccccc1C1N=C(Nc2nc3ccccc3o2)NC2=C1C(=O)CCC2 (stereo not drawn) [Compound 43] | 48.5 | – |
| Cc1ccc2nc(NC3=NC4(CCCC4)C4=C(CCCC4=O)N3)oc2c1 [Compound 28] | 21.1 | – |
| CN(C)c1ccc(C2N=C(Nc3nc4ccccc4o3)NC3=C2C(=O)CCC3)cc1 (stereo not drawn) [Compound 53] | 76.9 | – |
| O=C1CC(c2ccccc2)CC2=C1C1(CCCCC1)N=C(Nc1nc3ccccc3o1)N2 (stereo not drawn) [Compound 6] | 42.1 | – |
| Cc1ccc(C2N=C(Nc3nc4ccccc4o3)NC3=C2C(=O)CCC3)s1 (stereo not drawn) [Compound 48] | 61.1 | – |
| CNC(=O)C1=C(C)NC(Nc2nc3ccccc3o2)=NC1c1n[nH]cc1Cl (stereo not drawn) [Compound 109] | 18.3 | – |
| Cn1ncc(Cl)c1C1N=C(Nc2nc3ccccc3o2)NC2=C1C(=O)CCC2 (stereo not drawn) [Compound 64] | 36.6 | – |
| CNC(=O)C1=C(C)NC(Nc2nc3ccccc3o2)=NC12CCCC2 [Compound 111] | 20.6 | – |
| Cc1ccc(C2N=C(Nc3nc4ccccc4o3)NC3=C2C(=O)CCC3)cc1 (stereo not drawn) [Compound 47] | 61.1 | – |
| O=C1CCCC2=C1C(c1cccnc1Cl)N=C(Nc1nc3ccccc3o1)N2 (stereo not drawn) [Compound 61] | 18.8 | – |
| CC1=C(C(=O)NC2CC2)C(c2nn(C)cc2Cl)N=C(Nc2nc3ccccc3o2)N1 (stereo not drawn) [Compound 101] | 18.3 | – |
| O=C1CCCC2=C1C(c1ccncc1Br)N=C(Nc1nc3ccccc3o1)N2 (stereo not drawn) [Compound 71] | 20.6 | – |
| O=C1CCCC2=C1C(c1ccncc1Cl)N=C(Nc1nc3ccccc3o1)N2 (stereo not drawn) [Compound 55] | 15.3 | – |
| O=C1CCCC2=C1[C@@]1(CCC(c3ccccc3)C1)N=C(Nc1nc3ccccc3o1)N2 (stereo partly drawn) [Compound 12] | 47.3 | – |
| CC1=C(C(=O)Nc2nc3ccccc3s2)C(c2n[nH]cc2Cl)N=C(Nc2nc3ccccc3o2)N1 (stereo not drawn) [Compound 107] | 11.6 | – |
| COc1ccc(C2N=C(Nc3nc4ccccc4o3)NC3=C2C(=O)CCC3)cc1 (stereo not drawn) [Compound 45] | 61.1 | – |
| O=C1CCCC2=C1C(c1cccc(F)c1)N=C(Nc1nc3ccccc3o1)N2 (stereo not drawn) [Compound 42] | 68.5 | – |
| CC1=C(C(=O)Nc2ccon2)C(c2nn(C)cc2Cl)N=C(Nc2nc3ccccc3o2)N1 (stereo not drawn) [Compound 112] | 9.19 | – |
| O=C1CCCC2=C1C(c1ccccc1C(F)(F)F)N=C(Nc1nc3ccccc3o1)N2 (stereo not drawn) [Compound 39] | 12.2 | – |
| O=C1CCCC2=C1C(c1c(Cl)cccc1Cl)N=C(Nc1nc3ccccc3o1)N2 (stereo not drawn) [Compound 60] | 13 | – |

| Compound | IC50 [µM] | GALK Assay Efficacy |
| --- | --- | --- |
| O=C1CCC2=C1C1(CCCC1)N=C(Nc1nc3ccccc3o1)N2 [Compound 10] | 13.3 | – |
| CC1=C(C(=O)N(C)c2ccccc2C)C(c2ccccc2Br)N=C(Nc2nc3ccccc3o2)N1 (stereo not drawn) [Compound 83] | 10.3 | – |
| CC1=C(C(=O)Nc2nc3ccccc3s2)C(c2nn(C)cc2Cl)N=C(Nc2nc3ccccc3o2)N1 (stereo not drawn) [Compound 98] | 9.19 | – |
| CC1=C(C(=O)Nc2nc3ccccc3s2)C2(CCCC2)N=C(Nc2nc3ccccc3o2)N1 [Compound 95] | 25.9 | – |
| O=C1CCCC2=C1C(c1ccc(Cl)cc1)N=C(Nc1nc3ccccc3o1)N2 (stereo not drawn) [Compound 38] | 68.5 | – |
| CC1=C(C(=O)n2ccc3ccccc32)C(c2ccccc2Br)N=C(Nc2nc3ccccc3o2)N1 (stereo not drawn) [Compound 82] | 18.3 | – |
| O=C1CCCC2=C1C(c1ccc(F)cc1)N=C(Nc1nc3ccccc3o1)N2 (stereo not drawn) [Compound 51] | 61.1 | – |
| CC1=C(C(=O)Nc2ccccc2)C(c2ccccc2Br)N=C(Nc2nc3ccccc3o2)N1 (stereo not drawn) [Compound 90] | 9.19 | – |
| Cc1cc(C2N=C(Nc3nc4ccccc4o3)NC3=C2C(=O)CCC3)n[nH]1 (stereo not drawn) [Compound 74] | 18.3 | – |
| CC1=C(C(=O)NC2CC2)C(c2n[nH]cc2Cl)N=C(Nc2nc3ccccc3o2)N1 (stereo not drawn) [Compound 110] | 20.6 | – |
| O=C1CCCC2=C1C(c1ccn[nH]1)N=C(Nc1nc3ccccc3o1)N2 (stereo not drawn) [Compound 73] | 14.6 | – |
| CNC(=O)C1=C(C)NC(Nc2nc3ccccc3o2)=NC1c1nn(C)cc1Cl (stereo not drawn) [Compound 105] | 16.3 | – |
| O=C1CCCC2=C1C(c1ccccc1)N=C(Nc1nc3ccccc3o1)N2 (stereo not drawn) [Compound 52] | 34.3 | – |
| O=C1CCCC2=C1C1(CCS(=O)(=O)C1)N=C(Nc1nc3ccccc3o1)N2 (stereo not drawn) [Compound 24, 2-(benzo[d]oxazol-2-ylamino)-4′,5′,7,8-tetrahydro-1H,2′H-spiro[quinazoline-4,3′-thiophen-1,1-dioxide]-5(6H)-one] | 6.68 | 67.583 |
| CC1CCC2(C1)N=C(Nc1nc3ccccc3o1)NC1=C2C(=O)CCC1 (stereo not drawn) [Compound 14] | 11.9 | – |
| CC1(C)N=C(Nc2nc3ccccc3o2)NC2=C1C(=O)CCC2 [Compound 5] | 32.6 | – |
| COc1cccc(C2N=C(Nc3nc4ccccc4o3)NC3=C2C(=O)CCC3)c1 (stereo not drawn) [Compound 44] | 18.8 | – |
| O=C1CCCC2=C1C1(CCCOC1)N=C(Nc1nc3ccccc3o1)N2 (stereo not drawn) [Compound 23] | 33.5 | – |
| CC1=C(C(=O)N(C)C)C(c2ccccc2Br)N=C(Nc2nc3ccccc3o2)N1 (stereo not drawn) [Compound 91] | 20.6 | – |
| O=C1CCCC2=C1C(c1cccc(C(F)(F)F)c1)N=C(Nc1nc3ccccc3o1)N2 (stereo not drawn) [Compound 40] | 16.8 | – |
| O=C1CCC2=C1C(c1ccccc1Cl)N=C(Nc1nc3ccccc3o1)N2 (stereo not drawn) [Compound 16] | 9.43 | – |
| Cc1cccc(C2N=C(Nc3nc4ccccc4o3)NC3=C2C(=O)CCC3)c1 (stereo not drawn) [Compound 46] | 61.1 | – |
| Cc1ccsc1C1N=C(Nc2nc3ccccc3o2)NC2=C1C(=O)CCC2 (stereo not drawn) [Compound 65] | 9.19 | – |

Further lines, with some results ahead:

| IC50 [µM] | Compound | GALK Assay Efficacy |
| --- | --- | --- |
| 8.19 | CC1=C(C(=O)Nc2ccon2)C(c2nn(C)cc2Cl)N=C(Nc2nc3ccccc3o2)N1 (stereo not drawn) [Compound 97] | – |
| 6.68 | O=C1CCCC2=C1C1(CCCC1)N=C(Nc1nc3cc(Cl)ccc3o1)N2 [Compound 20] | – |
| 6.68 | O=C1CCCC2=C1C(c1cnccc1C(F)(F)F)N=C(Nc1nc3ccccc3o1)N2 (stereo not drawn) [Compound 59] | – |
| 6.68 | O=C1CCCC2=C1C(c1ncccc1C(F)(F)F)N=C(Nc1nc3ccccc3o1)N2 (stereo not drawn) [Compound 58] | – |
| 6.51 | CC1=C(C(=O)NCc2ccccc2)C(c2ccccc2Br)N=C(Nc2nc3ccccc3o2)N1 (stereo not drawn) [Compound 92] | – |
| 6.51 | CC1=C(C(=O)Nc2ccon2)C2(CCCC2)N=C(Nc2nc3ccccc3o2)N1 [Compound 94] | – |
| 5.8 | CC1=C(C(=O)Nc2ccon2)C(c2ccccc2Br)N=C(Nc2nc3ccccc3o2)N1 (stereo not drawn) [Compound 84] | – |
| 5.17 | CC1(C)CC(=O)C2=C(C1)NC(Nc1nc3ccccc3o1)=NC21CCCCC1 [Compound 7] | – |
| 5.17 | CC1=C(C(=O)Nc2ccc(Cl)cc2)C(c2ccccc2Br)N=C(Nc2nc3ccccc3o2)N1 (stereo not drawn) [Compound 77] | – |
| 5.17 | CC1=C(C(=O)Nc2nnc(-c3ccccc3)s2)C(c2n[nH]cc2Cl)N=C(Nc2nc3ccccc3o2)N1 (stereo not drawn) [Compound 108] | – |
| 5.17 | CC1=C(C(=O)Nc2nncs2)C(c2nn(C)cc2Cl)N=C(Nc2nc3ccccc3o2)N1 (stereo not drawn) [Compound 102] | – |
| 4.61 | CC1=C(C(=O)Nc2ccccc2C)C(c2ccccc2Br)N=C(Nc2nc3ccccc3o2)N1 (stereo not drawn) [Compound 78] | – |
| 3.66 | CC1=C(C(=O)Nc2nnc(-c3ccccc3)s2)C(c2nn(C)cc2Cl)N=C(Nc2nc3ccccc3o2)N1 (stereo not drawn) [Compound 100] | – |
| 3.26 | CC1=C(C(=O)Nc2ccccc2Cl)C(c2ccccc2Br)N=C(Nc2nc3ccccc3o2)N1 (stereo not drawn) [Compound 76] | – |
| 3.26 | COc1ccc(NC(=O)C2=C(C)NC(Nc3nc4ccccc4o3)=NC2c2ccccc2Br)cc1 (stereo not drawn) [Compound 81] | – |
| 3.26 | CC1=C(C(=O)Nc2nncs2)C(c2ccccc2Br)N=C(Nc2nc3ccccc3o2)N1 (stereo not drawn) [Compound 86] | – |
| 3.26 | CC1=C(C(=O)Nc2nncs2)C2(CCCC2)N=C(Nc2nc3ccccc3o2)N1 [Compound 93] | – |
| 2.91 | O=C1CCCC2=C1C(c1n[nH]cc1Br)N=C(Nc1nc3ccccc3o1)N2 (stereo not drawn) [Compound 69] | – |
| 2.91 | Cn1cc(Br)c(C2N=C(Nc3nc4ccccc4o3)NC3=C2C(=O)CCC3)n1 (stereo not drawn) [Compound 70] | – |
| 2.91 | O=C1CCCC2=C1C(c1n[nH]cc1Cl)NC(Nc1nc3ccccc3o1)=N2 (stereo not drawn) [Compound 75] | – |
| 2.66 | O=C1CCCC2=C1C(c1ccccc1Cl)N=C(Nc1nc3ccccc3o1)N2 (stereo not drawn) [Compound 57] | – |
| 2.66 | O=C1CCCC2=C1C1(CCSC1)N=C(Nc1nc3ccccc3o1)N2 (stereo not drawn) [Compound 21] | – |
| 1.46 | O=C1CCCC2=C1C(c1ccncc1Br)N=C(Nc1nc3ccccc3o1)N2 (stereo not drawn) [Compound 68] | – |
| 1.16 | O=C1CCCC2=C1C(c1ccccc1I)N=C(Nc1nc3ccccc3o1)N2 (stereo not drawn) [Compound 66] | – |
| 1.06 | O=C1CCCC2=C1C1(CCSCC1)N=C(Nc1nc3ccccc3o1)N2 [Compound 22] | – |
| 0.749 | O=C1CCCC2=C1C(c1ccccc1Br)N=C(Nc1nc3ccccc3o1)N2 (stereo not drawn) [Compound 41] | – |
| 0.651 | O=C1CCCC2=C1C(c1ncccc1Br)N=C(Nc1nc3ccccc3o1)N2 (stereo not drawn) [Compound 67] | – |
| 0.595 | O=C1CCCC2=C1C(c1ccccc1Cl)N=C(Nc1nc3ccccc3o1)N2 (stereo not drawn) [Compound 17] | – |
